Results: patent US9040526B2, “Benzylpyrrolidinone derivatives as modulators of chemokine receptor activity” (Bristol-Myers Squibb Company, priority 2010, dated 2015)

Each compound was assayed against T1, CCR2 receptor (Homo sapiens, UniProt P41597) (assay: THP-1 monocytic cell binding: whole cell-based radioligand competition assay (125I-human MCP-1)). Settings: THP-1 cells expressing endogenous CCR2; 125I-MCP-1 tracer 0.2 nM; n = 1 unless otherwise noted.
T1 construct: THP-1 human monocytic leukemic cell line, which expresses endogenous CCR2; endogenous in cells; host or cells: THP-1 human monocytic leukemic cell line (whole cells)
T1 sequence (P41597 1-360 isoform P41597-2): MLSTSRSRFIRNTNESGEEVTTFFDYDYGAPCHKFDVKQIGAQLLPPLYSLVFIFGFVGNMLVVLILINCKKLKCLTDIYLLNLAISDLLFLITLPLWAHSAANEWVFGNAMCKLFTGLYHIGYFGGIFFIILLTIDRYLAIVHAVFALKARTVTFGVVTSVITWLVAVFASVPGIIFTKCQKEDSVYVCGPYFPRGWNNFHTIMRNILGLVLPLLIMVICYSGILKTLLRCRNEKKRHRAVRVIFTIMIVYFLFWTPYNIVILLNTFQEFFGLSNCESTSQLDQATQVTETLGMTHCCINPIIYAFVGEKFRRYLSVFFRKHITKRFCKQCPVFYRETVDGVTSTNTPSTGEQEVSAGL
Description: THP-1 Monocytic Cell Binding: Whole Cell-Based Assay
The human CCR2 binding assay was also established with the THP-1 human monocytic leukemic cell line, which expresses endogenous CCR2, using ^125I-human MCP-1 as the tracer ligand. Radioligand competition binding assays were used for assessment of binding affinity of test compounds to the CCR2 receptor. For radioligand competition studies, 100 μl containing 2.5×10^5 THP-1 cells/well (in assay buffer containing 50 mM HEPES, pH7.4, 5 mM MgCl2, 1 mM CaCl2 and 0.5% BSA) were added to 96-well assay plates containing the test compounds in 3-fold serial dilution, with final concentrations ranging from 5 μM to 100 pM. Subsequently, 50 μl ^125I-MCP-1 radioligand at a final concentration of 0.2 nM in assay buffer were added to the reaction. After a 90 minute incubation period at room temperature, the binding reaction was terminated by harvesting on GF/B filter plates (PerkinElmer Cat. No. 6005177) followed by washing with ice-cold wash buffer (50 mM HEPES, pH 7.4, 0.1% BSA, 0.5 M NaCl) to remove unbound ligand. After washing, the plate was dried for 45 minutes at 60° C. followed by addition of 40 μl MicroScint 20 scintillation fluid, sealed and analyzed by the Packard TopCount reader. Non-specific binding was determined in the presence of 10 μM (a molar excess of 5000 fold) of an in-house CCR2 small molecule antagonist (CCR2 IC50=2 nM). Specific binding of ^125I-MCP-1 was calculated as the difference between total and non-specific binding. The competition data was plotted as a percentage inhibition of radioligand specific bound in the absence of test compound (percent of total signal). After correcting for non-specific binding, IC50 values were determined. The IC50 is defined as the concentration of test compound required to reduce ^125-MCP-1 specific binding by 50% and was calculated using the four parameter logistic equation to fit the normalized data.
Compounds of the present invention were tested in the THP-1 monocytic binding assay described above and the results shown in Table 3 below were obtained.

| SMILES | Ki |
| --- | --- |
| CC(C)C1(CCNC2CCC(O)CC2)CC2Oc3ccc(C(F)(F)F)cc3CN2C1=O (mixture of isomers) [Example 3i, 2-(2-((1r,4r)-4-hydroxycyclohexylamino)ethyl)-2-isopropyl-7-(trifluoromethyl)-2,3,3a,9-tetrahydro-1H-benzo[e] pyrrolo[2,1-b][1,3]oxazin-1-one] | 639 nM |
| CC(C)C1(CCN2CCC(c3ccccc3)CC2)CC2Oc3ccc(C(F)(F)F)cc3CN2C1=O (single isomer, unassigned) [3b, diastereomer 1] | 934 nM |
| CC(C)C1(CCN2CCC(c3ccccc3)CC2)CC2Oc3ccc(C(F)(F)F)cc3CN2C1=O (single isomer, unassigned) [3b, diastereomer 2] | 37.8 nM |
| CC(C)C1(CCN2CCC3(C=Cc4ccccc43)CC2)CC2Oc3ccc(C(F)(F)F)cc3CN2C1=O (single isomer, unassigned) [3f, diastereomer 1] | 45.4 nM |
| CC(C)C1(CCN2CCC3(C=Cc4ccccc43)CC2)CC2Oc3ccc(C(F)(F)F)cc3CN2C1=O (single isomer, unassigned) [3f, diastereomer 2] | 11 nM |
| CC(C)C1(CCNC2CCOCC2)CC2Oc3ccc(C(F)(F)F)cc3CN2C1=O (single isomer, unassigned) [3h, diastereomer 2] | 495 nM |
| CC(C)C1(CCN2CCCCC2)CCN(Cc2cc(C(F)(F)F)cc(C(F)(F)F)c2)C1=O (stereo not shown) [Example 1a, 1-(3,5-bis(trifluoromethyl)benzyl)-3-isopropyl-3-(2-(piperidin-1-yl)ethyl)pyrrolidin-2-one] | 983 nM |
| CC(C)C1(CCN2CCC(c3ccccc3)CC2)CCN(Cc2cc(C(F)(F)F)cc(C(F)(F)F)c2)C1=O (stereo not shown) [Example 1b, 1-(3,5-bis(trifluoromethyl)benzyl)-3-isopropyl-3-(2-(4-phenylpiperidin-1-yl)ethyl)pyrrolidin-2-one] | 933 nM |
| CC(C)C1(CCN2CC[C@@]3(C=Cc4ccccc43)[C@@H](C)C2)CCN(Cc2cc(C(F)(F)F)cc(C(F)(F)F)c2)C1=O (stereo partly drawn) [Example 1c, 1-(3,5-bis(trifluoromethyl)benzyl)-3-isopropyl-3-(2-((1R,3′R)-3′-methylspiro[indene-1,4′-piperidine]-1′-yl)ethyl) pyrrolidin-2-one] | 736 nM |
| CC(C)C1(CCCN2CCC(c3ccccc3)CC2)CCN(Cc2cc(C(F)(F)F)cc(C(F)(F)F)c2)C1=O (stereo not shown) [Example 2a, 1-(3,5-bis(trifluoromethyl)benzyl)-3-isopropyl-3-(3-(4-phenylpiperidin-1-yl)propyl)pyrrolidin-2-one] | 3510 nM |
| CC(C)C1(CCNC(C)(C)C)CC2Oc3ccc(C(F)(F)F)cc3CN2C1=O (stereo not shown) [Example 3a, 2-(2-(tert-butylamino)ethyl)-2-isopropyl-7-(trifluoromethyl)-2,3,3,a,9-tetrahydro-1H-benzo[e]pyrrolo[2,1-b][1,3]oxazin-1-one] | 2540 nM |
| CC(C)C1(CCN2CCC(c3cccc(C(=O)O)c3)CC2)CC2Oc3ccc(C(F)(F)F)cc3CN2C1=O (stereo not shown) [Example 3c, 3-(1-(2-(2-isopropyl-1-oxo-7-(trifluoromethyl)-2,3,3a,9-tetrahydro-1H-benzo[e]pyrrolo[2,1-b][1,3]oxazin-2-yl)ethyl)piperidin-4-yl)benzoic acid] | 2610 nM |
| CC(C)C1(CCN2CCC(n3c(=O)[nH]c4ccccc43)CC2)CC2Oc3ccc(C(F)(F)F)cc3CN2C1=O (stereo not shown) [Example 3j, 2-isopropyl-2-(2-(4-(2-oxo-2,3-dihydro-1H-benzo[d]imidazol-1-yl)piperidin-1-yl)ethyl)-7-(trifluoromethyl)-2,3,3a,9-tetrahydro-1H-benzo[e]pyrrolo[2,1-b][1,3] oxazin-1-one] | 1280 nM |
| CC(C)C1(CCN2CCN(c3ccc(F)cc3)CC2)CC2Oc3ccc(C(F)(F)F)cc3CN2C1=O (stereo not shown) [Example 3k, 2-(2-(4-(4-fluorophenyl)piperazin-1-yl)ethyl)-2-isopropyl-7-(trifluoromethyl)-2,3,3a,9-tetrahydro-1H-benzo[e]pyrrolo[2,1-b][1,3] oxazin-1-one] | 1410 nM |
| CC(C)C1(CCN2CCN(C)CC2)CC2Oc3ccc(C(F)(F)F)cc3CN2C1=O (stereo not shown) [Example 3l, 2-isopropyl-2-(2-(4-methylpiperazin-1-yl)ethyl)-7-(trifluoromethyl)-2,3,3a,9-tetrahydro-1H-benzo[e]pyrrolo[2,1-b][1,3]oxazin-1-one] | 7910 nM |
| CC(C)C1(CCN2CCC(O)(c3ccccc3)CC2)CC2Oc3ccc(C(F)(F)F)cc3CN2C1=O (stereo not shown) [Example 3m, 2-(2-(4-hydroxy-4-phenylpiperidin-1-yl)ethyl)-2-isopropyl-7-(trifluoromethyl)-2,3,3a,9-tetrahydro-1H-benzo[e]pyrrolo[2,1-b][1,3]oxazin-1-one] | 153 nM |
| CC(C)C1(CCN2CCC(Cc3ccccc3)CC2)CC2Oc3ccc(C(F)(F)F)cc3CN2C1=O (stereo not shown) [Example 3n, 2-(2-(4-benzylpiperidin-1-yl)ethyl)-2-isopropyl-7-(trifluoromethyl)-2,3,3a,9-tetrahydro-1H-benzo[e] pyrrolo[2,1-b][1,3]oxazin-1-one] | 1490 nM |
| CC(C)C1(CCN2CCc3ccccc3C2)CC2Oc3ccc(C(F)(F)F)cc3CN2C1=O (stereo not shown) [Example 3o, 2-(2-(3,4-dihydroisoquinolin-2(1H)-yl)ethyl)-2-isopropyl-7-(trifluoromethyl)-2,3,3a,9-tetrahydro-1H-benzo[e] pyrrolo[2,1-b][1,3]oxazin-1-one] | 3890 nM |
| CC(C)C1(CCN2CCC(c3ccccc3)C2)CC2Oc3ccc(C(F)(F)F)cc3CN2C1=O (stereo not shown) [Example 3p, 2-isopropyl-2-(2-(3-phenylpyrrolidin-1-yl)ethyl)-7-(trifluoromethyl)-2,3,3a,9-tetrahydro-1H-benzo[e] pyrrolo[2,1-b][1,3] oxazin-1-one] | 23 nM |
